This passage reports IC50 results from patent publication US8785470B2, “Heterocyclic compounds and uses thereof” (Infinity Pharmaceuticals, Inc., priority 2011, dated 2014).

Structures are written as SMILES. Read-outs that look alike come from different tables or passages of the source.

In test [1] the test system is phospho-AKT in RAJI cells (PI3Kδ). Nature of the test: PI3Kδ selective assay, phospho-AKT in RAJI cells. The class given is cell-based. The conditions noted are these: RAJI cells stimulated with anti-human IgM; read-out: IC50 for phospho-AKT, RAJI cell model. From the text:
A compound's ability in selectively inhibiting PI3Kδ can be assessed using RAJI cells, i.e., B lymphocyte cells derived from lymphoma patients. Briefly, serum-starved RAJI cells are stimulated with anti-human IgM, thereby causing signaling through the B-cell receptors, as described in, for example, He et al., Leukemia Research (2009) 33: 798-802. B-cell receptor signaling is important for the activation, differentiation, and survival of B cells and certain B-cell derived cancers. Reduction of phospho-AKT is indicative of compounds that may inhibit B-cell proliferation and function in certain diseases. By monitoring the reduction of phospho-AKT in stimulated RAJI cells (using for example, phospho-AKT antibodies), a compound's potential efficacy in selectively inhibiting PI3Kδ can be assessed.

The target of a further test is T1, PI3Kβ (Homo sapiens, UniProt P42338).
T1 construct: purchased Millipore Corporation 14-603-K
T1 sequence (P42338 whole entry): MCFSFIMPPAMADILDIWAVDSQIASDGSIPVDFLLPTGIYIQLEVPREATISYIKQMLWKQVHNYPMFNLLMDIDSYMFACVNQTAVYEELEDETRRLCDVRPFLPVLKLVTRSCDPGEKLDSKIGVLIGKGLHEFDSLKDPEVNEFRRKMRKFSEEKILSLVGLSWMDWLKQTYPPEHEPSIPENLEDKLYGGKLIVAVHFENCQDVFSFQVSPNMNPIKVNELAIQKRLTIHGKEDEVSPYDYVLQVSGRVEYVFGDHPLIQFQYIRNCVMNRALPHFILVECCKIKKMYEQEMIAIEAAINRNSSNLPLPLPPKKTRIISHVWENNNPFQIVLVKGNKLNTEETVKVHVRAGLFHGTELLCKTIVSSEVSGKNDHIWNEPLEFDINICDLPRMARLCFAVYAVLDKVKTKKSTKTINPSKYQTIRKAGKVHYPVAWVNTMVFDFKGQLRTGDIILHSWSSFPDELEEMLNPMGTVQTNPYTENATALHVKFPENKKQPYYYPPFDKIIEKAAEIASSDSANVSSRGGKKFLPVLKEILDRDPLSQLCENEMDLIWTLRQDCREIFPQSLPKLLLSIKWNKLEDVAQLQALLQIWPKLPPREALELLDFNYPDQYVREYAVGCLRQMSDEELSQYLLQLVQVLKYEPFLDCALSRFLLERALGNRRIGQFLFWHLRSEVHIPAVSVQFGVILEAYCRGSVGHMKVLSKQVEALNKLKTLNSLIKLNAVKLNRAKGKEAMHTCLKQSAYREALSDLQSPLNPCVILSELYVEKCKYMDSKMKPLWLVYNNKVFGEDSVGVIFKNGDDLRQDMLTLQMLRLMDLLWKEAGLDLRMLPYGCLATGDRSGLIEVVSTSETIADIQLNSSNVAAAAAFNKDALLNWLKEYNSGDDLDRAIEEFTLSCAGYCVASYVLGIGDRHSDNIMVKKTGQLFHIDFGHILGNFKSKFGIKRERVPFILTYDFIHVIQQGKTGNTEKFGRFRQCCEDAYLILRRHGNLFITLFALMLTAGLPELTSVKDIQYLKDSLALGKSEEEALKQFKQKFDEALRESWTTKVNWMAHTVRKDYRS
T1 sequence (P27986 whole entry partner): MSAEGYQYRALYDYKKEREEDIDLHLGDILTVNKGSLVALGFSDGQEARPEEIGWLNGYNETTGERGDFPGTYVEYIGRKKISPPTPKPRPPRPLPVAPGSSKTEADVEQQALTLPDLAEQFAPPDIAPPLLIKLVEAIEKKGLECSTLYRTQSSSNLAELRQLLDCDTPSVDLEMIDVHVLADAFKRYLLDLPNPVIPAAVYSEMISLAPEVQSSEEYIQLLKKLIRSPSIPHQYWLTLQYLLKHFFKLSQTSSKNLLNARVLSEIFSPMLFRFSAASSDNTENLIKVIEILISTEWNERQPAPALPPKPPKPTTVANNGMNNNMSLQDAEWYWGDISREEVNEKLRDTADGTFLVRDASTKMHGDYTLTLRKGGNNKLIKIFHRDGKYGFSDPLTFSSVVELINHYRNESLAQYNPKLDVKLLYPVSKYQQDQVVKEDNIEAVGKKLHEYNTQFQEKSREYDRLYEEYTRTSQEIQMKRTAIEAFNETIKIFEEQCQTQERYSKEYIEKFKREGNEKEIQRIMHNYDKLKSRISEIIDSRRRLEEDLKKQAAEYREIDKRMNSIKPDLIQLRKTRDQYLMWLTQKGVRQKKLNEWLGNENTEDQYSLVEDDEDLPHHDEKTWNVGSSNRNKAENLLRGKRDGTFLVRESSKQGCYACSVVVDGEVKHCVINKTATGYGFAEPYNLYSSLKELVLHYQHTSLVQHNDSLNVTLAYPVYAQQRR
Put plainly: PI3-Kinase HTRF assay, PI3Kβ. The conditions noted are these: bins Greater than 10 μM and Greater than 1 μM to 10 μM; 10 μM ATP, PIP2 at 10 μM. In kind it is biochemical. The method in brief:
(§1)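 Competitive time-resolved FRET readout of PIP3 formed from 10 μM PIP2 with 10 μM ATP, 1 h at room temperature, by each recombinant human isoform (α, β, γ, δ; 0.25-0.3 μg/ml). Compound (2% DMSO final) was preincubated 15 min with enzyme and substrate; IC50 fitted over 20 μM–0.1 nM, 12 points.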
(In general: TR-FRET usually uses a lanthanide donor and a delayed reading to cut background.)

For the next test, the target named is T2, PI3Kα (Homo sapiens, UniProt P42336).
T2 construct: purchased Millipore Corporation 14-602-K
T2 sequence (P42336 whole entry): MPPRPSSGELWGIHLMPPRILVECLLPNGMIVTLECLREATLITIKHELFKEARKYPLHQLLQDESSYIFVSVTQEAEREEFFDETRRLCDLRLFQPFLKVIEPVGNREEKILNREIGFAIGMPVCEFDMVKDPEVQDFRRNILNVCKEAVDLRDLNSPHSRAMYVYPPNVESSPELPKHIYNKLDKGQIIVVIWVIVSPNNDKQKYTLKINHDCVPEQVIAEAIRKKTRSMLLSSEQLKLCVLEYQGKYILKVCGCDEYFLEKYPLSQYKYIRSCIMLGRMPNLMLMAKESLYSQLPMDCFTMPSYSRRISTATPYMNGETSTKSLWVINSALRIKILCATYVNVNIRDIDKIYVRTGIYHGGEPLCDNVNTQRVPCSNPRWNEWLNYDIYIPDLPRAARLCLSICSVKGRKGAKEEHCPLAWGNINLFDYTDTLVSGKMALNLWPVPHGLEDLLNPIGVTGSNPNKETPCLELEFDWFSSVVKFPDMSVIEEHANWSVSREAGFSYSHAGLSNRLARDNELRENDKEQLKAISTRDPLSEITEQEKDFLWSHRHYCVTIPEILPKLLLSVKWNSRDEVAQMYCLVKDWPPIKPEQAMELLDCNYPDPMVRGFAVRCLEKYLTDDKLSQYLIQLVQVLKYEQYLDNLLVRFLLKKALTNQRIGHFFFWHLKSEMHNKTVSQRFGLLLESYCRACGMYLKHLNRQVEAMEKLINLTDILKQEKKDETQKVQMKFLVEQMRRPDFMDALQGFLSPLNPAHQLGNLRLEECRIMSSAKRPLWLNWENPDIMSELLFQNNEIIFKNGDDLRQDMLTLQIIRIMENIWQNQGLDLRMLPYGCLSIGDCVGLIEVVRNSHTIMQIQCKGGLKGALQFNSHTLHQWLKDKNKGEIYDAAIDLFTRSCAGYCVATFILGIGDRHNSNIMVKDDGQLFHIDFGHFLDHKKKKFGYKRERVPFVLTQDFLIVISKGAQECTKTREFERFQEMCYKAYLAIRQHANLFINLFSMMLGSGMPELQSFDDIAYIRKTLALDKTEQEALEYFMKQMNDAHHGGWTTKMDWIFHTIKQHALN
T2 sequence (P27986 whole entry partner): as the sequence (P27986 whole entry partner) above
Put plainly: PI3-Kinase HTRF assay, PI3Kα. The class given is biochemical. The following applies: bins Greater than 10 μM and Greater than 1 μM to 10 μM; 10 μM ATP, PIP2 at 10 μM; read-out: IC50 P13Kα. The method in brief:
as §1

The test system of test [2] is phospho-AKT in RAW 264.7 cells (PI3Kγ). Nature of the test: PI3Kγ selective assay, phospho-AKT in RAW 264.7 cells. The class given is cell-based. The conditions noted are these: Mus musculus, RAW264.7, stimulated with C5a, read-out: IC50 for phospho-AKT, RAW 264.7 cell model. From the text: A compound's ability in selectively inhibiting PI3Kγ can be assessed using RAW264.7 macrophages. Briefly, serum-starved PAW264.7 cells are stimulated with a known GPCR agonist C5a. (See, e.g., Camps et al., Nature Medicine (2005) 11(9): 936-943). Cells can be treated with test compounds prior to, simultaneously with, or subsequent to the stimulation by C5a. RAW 264.7 cells respond to the complement component fragment C5a through activation of the C5a receptor, and the C5a receptor activates macrophages and induces cell migration. Test compounds' ability to inhibit C5a-mediated AKT phosphorylation is indicative of selective inhibition of PI3Kγ. Thus, by monitoring the reduction of phospho-AKT in stimulated RAW 264.7 cells (using for example, phospho-AKT antibodies), a compound's potential efficacy in selectively inhibiting PI3Kγ can be assessed.

The mark [3] stands for this setting: ranges less than 100 nM and between 100 nM and 1 μM (given as 100-1000).

The term IC50 denotes the concentration at which inhibition is half-maximal. As for `N#Cc1cnc(N)nc1NCc1cc2cccc(Cl)c2c(=O)n1-c1ccccc1` [Compound 241], the IC50 in test [1] was < 0.1 µM; against PI3Kβ, 1 to 10 µM; on PI3Kα it was 1 to 10 µM; in test [2] (setting [3]) it was < 0.1 µM.

In the case of `COc1cc(-c2cccc3cc(CNc4nc(N)ncc4C#N)n(-c4ccccc4)c(=O)c23)ccn1` [Compound 242], the IC50 was < 0.1 µM in test [1] and 0.1 to 1 µM in test [2] (setting [3]).

On to `C[C@H](Nc1nc(N)ncc1C#N)c1cc2cccc(Cl)c2c(=O)n1-c1cc(F)cc(F)c1` [Compound 273], for which the IC50 in test [1] is < 0.1 µM; in test [2] (setting [3]) it was 0.1 to 1 µM.

On to `C[C@H](Nc1nc(N)ncc1C#N)c1cc2cccc(Cl)c2c(=O)n1-c1cccc(C#N)c1` [Compound 285], for which the concentration for half-maximal inhibition (IC50) in test [1] is < 0.1 µM; on PI3Kα it was 1 to 10 µM; in test [2] (setting [3]), < 0.1 µM.

In the case of `COc1cccc(-n2c([C@H](C)Nc3nc(N)ncc3C#N)cc3cccc(Cl)c3c2=O)c1` [Compound 288], the values for the IC50 (in test [1]; on PI3Kβ; in test [2] (setting [3])) were < 0.1 µM, 1 to 10 µM and < 0.1 µM, respectively.

As for `CC(C)OC(=O)c1cccc(-n2c([C@H](C)Nc3nc(N)ncc3C#N)cc3cccc(Cl)c3c2=O)c1` [Compound 312], the IC50 is < 0.1 µM in test [1] and 0.1 to 1 µM in test [2] (setting [3]).

For `COc1ncc(-c2cccc3cc([C@H](C)Nc4nc(N)ncc4C#N)n(C(C)C)c(=O)c23)cn1` [Compound 327], the results for the IC50 (in test [1]; at PI3Kα; in test [2] (setting [3])) were < 0.1 µM, 1 to 10 µM and 0.1 to 1 µM, respectively.

On to `CC(C)n1c([C@H](C)Nc2ncnc(N)c2C#N)cc2cccc(Cl)c2c1=O` [Compound 329], for which the IC50 in test [1] is < 0.1 µM; against PI3Kβ it was 1 to 10 µM; at PI3Kα, 1 to 10 µM; in test [2] (setting [3]), 0.1 to 1 µM.

Take `C[C@H](Nc1ncnc(N)c1C#N)c1cc2cccc(Cl)c2c(=O)n1-c1ccon1` [Compound 335]: the IC50 in test [1] was < 0.1 µM; in test [2] (setting [3]) it was 0.1 to 1 µM.

For the molecule `Cc1ncc(-c2cccc3cc([C@H](C)Nc4ncnc(N)c4C#N)n(-c4ccon4)c(=O)c23)cn1` [Compound 336], the IC50 in test [1] was < 0.1 µM; in test [2] (range between 1 μM and 10 μM), 1 to 10 µM.

In the case of `COc1ncc(-c2cccc3cc([C@H](C)Nc4ncnc(N)c4C#N)n(-c4ccccc4)c(=O)c23)cn1` [Compound 356], the 50% inhibitory concentration (IC50) was < 0.1 µM in test [1] and 0.1 to 1 µM in test [2] (setting [3]).

As for `C[C@H](Nc1nc(N)ncc1-c1cn[nH]c1)c1cc2cccc(Cl)c2c(=O)n1-c1ccccc1` [Compound 378], the IC50 in test [1] is < 0.1 µM; in test [2] (setting [3]), 0.1 to 1 µM.

For `C[C@H](Nc1nc(N)ncc1-c1ccoc1)c1cc2cccc(Cl)c2c(=O)n1-c1ccccc1` [Compound 379], the IC50 in test [1] and in test [2] (setting [3]) was < 0.1 µM in each case.

Regarding `COc1ncc(-c2cnc(N)nc2N[C@@H](C)c2cc3cccc(Cl)c3c(=O)n2-c2ccccc2)s1` [Compound 382], the figures for the IC50 (in test [1]; on PI3Kβ; in test [2] (setting [3])) were < 0.1 µM, 1 to 10 µM and < 0.1 µM, respectively.

Take `COc1ccc(-c2cnc(N)nc2N[C@@H](C)c2cc3cccc(Cl)c3c(=O)n2-c2ccccc2)cn1` [Compound 383]: the IC50 was < 0.1 µM in test [1], 1 to 10 µM at PI3Kα and < 0.1 µM in test [2] (setting [3]).

Regarding `C[C@H](Nc1nc(N)ncc1-c1cncs1)c1cc2cccc(-c3ccc(=O)n(C)c3)c2c(=O)n1-c1ccccc1` [Compound 387], the figures for the IC50 in test [1] and in test [2] (setting [3]) were < 0.1 µM and 0.1 to 1 µM, respectively.

For the molecule `C[C@H](Nc1nc(N)ncc1-c1cscn1)c1cc2cccc(-c3ccc(=O)n(C)c3)c2c(=O)n1-c1ccccc1` [Compound 393], the IC50 is < 0.1 µM in test [1] and 0.1 to 1 µM in test [2] (setting [3]).

For `CC(=O)c1cnc(N)nc1N[C@@H](C)c1cc2cccc(Cl)c2c(=O)n1-c1ccccc1` [Compound 394], the IC50 in test [1] and in test [2] (setting [3]) was < 0.1 µM in each case.

On to `CCOc1nc(-c2cnc(N)nc2N[C@@H](C)c2cc3cccc(-c4cnc(OC)nc4)c3c(=O)n2-c2ccccc2)cs1` [Compound 396], for which the IC50 in test [1] is < 0.1 µM; against PI3Kβ it was 1 to 10 µM; at PI3Kα, 1 to 10 µM; in test [2] (setting [3]), 0.1 to 1 µM.

As for `C[C@H](Nc1nc(N)ncc1-c1cccc(S(C)(=O)=O)c1)c1cc2cccc(Cl)c2c(=O)n1-c1ccccc1` [Compound 397], the concentration for half-maximal inhibition (IC50) in test [1] was < 0.1 µM; against PI3Kβ, 1 to 10 µM; on PI3Kα, 1 to 10 µM; in test [2] (setting [3]), < 0.1 µM.

Turning to `C[C@H](Nc1nc(N)ncc1-c1cccc(NS(C)(=O)=O)c1)c1cc2cccc(Cl)c2c(=O)n1-c1ccccc1` [Compound 399], the IC50 is < 0.1 µM in test [1], 1 to 10 µM against PI3Kβ, 1 to 10 µM at PI3Kα and < 0.1 µM in test [2] (setting [3]).

`C[C@H](Nc1nc(N)ncc1-c1cnc(S(C)(=O)=O)s1)c1cc2cccc(Cl)c2c(=O)n1-c1ccccc1` [Compound 403]: the half-maximal inhibitory concentration (IC50) in test [1] was < 0.1 µM; against PI3Kβ it was 1 to 10 µM; in test [2] (setting [3]), < 0.1 µM.

As to `C[C@H](Nc1nc(N)ncc1-c1cccc(N(C)S(C)(=O)=O)c1)c1cc2cccc(Cl)c2c(=O)n1-c1ccccc1` [Compound 408], the IC50 is < 0.1 µM in test [1], 1 to 10 µM on PI3Kβ, 1 to 10 µM at PI3Kα and < 0.1 µM in test [2] (setting [3]).

For the molecule `C[C@H](Nc1nc(N)ncc1-c1cccc(NS(=O)(=O)N(C)C)c1)c1cc2cccc(Cl)c2c(=O)n1-c1ccccc1` [Compound 410], the IC50 in test [1] and in test [2] (setting [3]) was < 0.1 µM each time.

Take `Cc1ccc(NS(C)(=O)=O)cc1-c1cnc(N)nc1N[C@@H](C)c1cc2cccc(Cl)c2c(=O)n1-c1ccccc1` [Compound 412]: the IC50 in test [1] was < 0.1 µM; against PI3Kβ it was 1 to 10 µM; in test [2] (setting [3]) it was < 0.1 µM.

In the case of `C[C@H](Nc1nc(N)ncc1-c1cccc(S(=O)(=O)N(C)C)c1)c1cc2cccc(Cl)c2c(=O)n1-c1ccccc1` [Compound 413], the IC50 in test [1] and in test [2] (setting [3]) was < 0.1 µM in each case.

With `C[C@H](Nc1nc(N)ncc1-c1cccc(S(N)(=O)=O)c1)c1cc2cccc(Cl)c2c(=O)n1-c1ccccc1` [Compound 414], the IC50 in test [1] was < 0.1 µM; at PI3Kα it was 1 to 10 µM; in test [2] (setting [3]), < 0.1 µM.

Turning to `C=CS(=O)(=O)Nc1cccc(-c2cnc(N)nc2N[C@@H](C)c2cc3cccc(Cl)c3c(=O)n2-c2ccccc2)c1` [Compound 415], the IC50 in test [1] and in test [2] (setting [3]) was < 0.1 µM throughout.

As for `CCS(=O)(=O)c1cccc(-c2cnc(N)nc2N[C@@H](C)c2cc3cccc(Cl)c3c(=O)n2-c2ccccc2)c1` [Compound 416], the IC50 in test [1] was < 0.1 µM; at PI3Kα, 1 to 10 µM; in test [2] (setting [3]), < 0.1 µM.

Regarding `C[C@H](Nc1nc(N)ncc1-c1cccc(S(=O)(=O)C2CC2)c1)c1cc2cccc(Cl)c2c(=O)n1-c1ccccc1` [Compound 417], the IC50 in test [1] is < 0.1 µM; against PI3Kβ it was 1 to 10 µM; on PI3Kα, 1 to 10 µM; in test [2] (setting [3]), < 0.1 µM.

Turning to `CNS(=O)(=O)c1cccc(-c2cnc(N)nc2N[C@@H](C)c2cc3cccc(Cl)c3c(=O)n2-c2ccccc2)c1` [Compound 418], the figures for the IC50 (in test [1]; on PI3Kα; in test [2] (setting [3])) were < 0.1 µM, 1 to 10 µM and < 0.1 µM, respectively.

In the case of `C[C@H](Nc1nc(N)ncc1-c1cccc(S(=O)(=O)N2CCCC2)c1)c1cc2cccc(Cl)c2c(=O)n1-c1ccccc1` [Compound 419], the IC50 in test [1] and in test [2] (setting [3]) was < 0.1 µM each time.

For `C[C@H](Nc1ncncc1-c1cccc(S(=O)(=O)N(C)C)c1)c1cc2cccc(Cl)c2c(=O)n1-c1ccccc1` [Compound 422], the concentration for half-maximal inhibition (IC50) was < 0.1 µM in test [1], 1 to 10 µM at PI3Kα and < 0.1 µM in test [2] (setting [3]).

`CC(C)C(=O)c1cnc(N)nc1N[C@@H](C)c1cc2cccc(Cl)c2c(=O)n1-c1ccccc1` [Compound 424]: the concentration for half-maximal inhibition (IC50) in test [1] is < 0.1 µM; on PI3Kα, 1 to 10 µM; in test [2] (setting [3]), 0.1 to 1 µM.

Regarding `C[C@H](Nc1nc(N)ncc1-c1cccc(S(C)(=O)=O)c1)c1cc2cccc(C(F)(F)F)c2c(=O)n1-c1ccccc1` [Compound 428], the IC50 was < 0.1 µM in test [1], 1 to 10 µM against PI3Kβ, 1 to 10 µM at PI3Kα and < 0.1 µM in test [2] (setting [3]).
